According to ChEMBL document CHEMBL1201862, “PubChem BioAssay data set” (2004):
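How tested: cells in 96-well plates exposed to compound for 48 hours at five concentrations. The concentration for 50% growth inhibition is given as GI50.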 Activity calls are given as the source filed them. No stated cut-off is given here; in the data, active = GI50 up to about 1.1 µM and inactive = higher.

Key:
Assay in all cases: DTP human tumour cell line panel, 48 h
SK-MEL-2 = tested on: SK-MEL-2
EKVX = tested on: EKVX
RXF 393 = tested on: RXF 393
SR = tested on: SR
SN12C = tested on: SN12C
SF-295 = tested on: SF-295
K562 = tested on: K562
SK-OV-3 = tested on: SK-OV-3
IGROV-1 = tested on: IGROV-1
MDA-MB-231 = tested on: MDA-MB-231
T47D = tested on: T47D
HCC 2998 = tested on: HCC 2998
SF-539 = tested on: SF-539
TK-10 = tested on: TK-10
HOP-92 = tested on: HOP-92
NCI-H522 = tested on: NCI-H522
BT-549 = tested on: BT-549
OVCAR-3 = tested on: OVCAR-3
KM12 = tested on: KM12
SF-268 = tested on: SF-268
RPMI-8226 = tested on: RPMI-8226
HOP-62 = tested on: HOP-62
HT-29 = tested on: HT-29
OVCAR-5 = tested on: OVCAR-5
NCI-H226 = tested on: NCI-H226
COLO 205 = tested on: COLO 205
SW-620 = tested on: SW-620
786-0 = tested on: 786-0
Malme-3M = tested on: Malme-3M
HCT-15 = tested on: HCT-15
MDA-N = tested on: MDA-N
HL-60 = tested on: HL-60
DU-145 = tested on: DU-145
NCI-H23 = tested on: NCI-H23
SK-MEL-28 = tested on: SK-MEL-28
UACC-62 = tested on: UACC-62
CAKI-1 = tested on: CAKI-1
Hs-578T = tested on: Hs-578T
NCI/ADR-RES = tested on: NCI/ADR-RES
SK-MEL-5 = tested on: SK-MEL-5
UACC-257 = tested on: UACC-257
CCRF-CEM = tested on: CCRF-CEM
SNB-19 = tested on: SNB-19
ACHN = tested on: ACHN
OVCAR-8 = tested on: OVCAR-8
SNB-75 = tested on: SNB-75
MCF7 = tested on: MCF7
A549 = tested on: A549
U-251 = tested on: U-251
MDA-MB-435 = tested on: MDA-MB-435
PC-3 = tested on: PC-3
HCT-116 = tested on: HCT-116
M14 = tested on: M14
MOLT-4 = tested on: MOLT-4
OVCAR-4 = tested on: OVCAR-4
NCI-H460 = tested on: NCI-H460
UO-31 = tested on: UO-31
LOX IMVI = tested on: LOX IMVI

Structure (SMILES): Cc1c2ccccc2cc2nc3ccccc3n12
- GI50 (SK-MEL-2): > 10 µM (inactive)
- GI50 (EKVX): > 10 µM (inactive)
- GI50 (RXF 393): > 10 µM (inactive)
- GI50 (SR): > 10 µM (inactive)
- GI50 (SN12C): > 10 µM (inactive)
- GI50 (SF-295): > 10 µM (inactive)
- GI50 (K562): > 10 µM (inactive)
- GI50 (SK-OV-3): > 10 µM (inactive)
- GI50 (IGROV-1): > 10 µM (inactive)
- GI50 (MDA-MB-231): > 10 µM (inactive)
- GI50 (T47D): > 10 µM (inactive)
- GI50 (HCC 2998): > 10 µM (inactive)
- GI50 (SF-539): > 10 µM (inactive)
- GI50 (TK-10): 0.00668 µM (active)
- GI50 (HOP-92): > 10 µM (inactive)
- GI50 (NCI-H522): > 10 µM (inactive)
- GI50 (BT-549): > 10 µM (inactive)
- GI50 (OVCAR-3): > 10 µM (inactive)
- GI50 (KM12): > 10 µM (inactive)
- GI50 (SF-268): > 10 µM (inactive)
- GI50 (RPMI-8226): > 10 µM (inactive)
- GI50 (HOP-62): > 10 µM (inactive)
- GI50 (HT-29): > 10 µM (inactive)
- GI50 (OVCAR-5): > 10 µM (inactive)
- GI50 (NCI-H226): > 10 µM (inactive)
- GI50 (COLO 205): > 10 µM (inactive)
- GI50 (SW-620): > 10 µM (inactive)
- GI50 (786-0): > 10 µM (inactive)
- GI50 (Malme-3M): > 10 µM (inactive)
- GI50 (HCT-15): > 10 µM
- GI50 (MDA-N): > 10 µM (inactive)
- GI50 (HL-60): > 10 µM (inactive)
- GI50 (DU-145): > 10 µM (inactive)
- GI50 (NCI-H23): > 10 µM (inactive)
- GI50 (SK-MEL-28): > 10 µM (inactive)
- GI50 (UACC-62): > 10 µM (inactive)
- GI50 (CAKI-1): > 10 µM (inactive)
- GI50 (Hs-578T): > 10 µM (inactive)
- GI50 (NCI/ADR-RES): > 10 µM (inactive)
- GI50 (SK-MEL-5): > 10 µM (inactive)
- GI50 (UACC-257): > 10 µM (inactive)
- GI50 (CCRF-CEM): > 10 µM (inactive)
- GI50 (SNB-19): > 10 µM (inactive)
- GI50 (ACHN): > 10 µM (inactive)
- GI50 (OVCAR-8): > 10 µM (inactive)
- GI50 (SNB-75): > 10 µM (inactive)
- GI50 (MCF7): > 10 µM (inactive)
- GI50 (A549): > 10 µM (inactive)
- GI50 (U-251): > 10 µM (inactive)
- GI50 (MDA-MB-435): > 10 µM (inactive)
- GI50 (PC-3): > 10 µM (inactive)
- GI50 (HCT-116): > 10 µM (inactive)
- GI50 (M14): > 10 µM (inactive)
- GI50 (MOLT-4): > 10 µM (inactive)
- GI50 (OVCAR-4): > 10 µM (inactive)
- GI50 (NCI-H460): > 10 µM (inactive)

Structure (SMILES): CC1(c2nc3ccccc3[nH]2)CCC(C(N)=O)C(C)(C)O1 (stereo not drawn)
- GI50 (SK-MEL-2): > 100 µM (inactive)
- GI50 (UO-31): > 100 µM (inactive)
- GI50 (EKVX): > 100 µM (inactive)
- GI50 (RXF 393): > 100 µM (inactive)
- GI50 (SR): > 100 µM (inactive)
- GI50 (SN12C): > 100 µM (inactive)
- GI50 (SF-295): > 100 µM (inactive)
- GI50 (K562): > 100 µM (inactive)
- GI50 (SK-OV-3): 55.2 µM (inactive)
- GI50 (IGROV-1): > 100 µM (inactive)
- GI50 (MDA-MB-231): > 100 µM (inactive)
- GI50 (T47D): > 100 µM (inactive)
- GI50 (HCC 2998): > 100 µM (inactive)
- GI50 (SF-539): > 100 µM (inactive)
- GI50 (TK-10): > 100 µM (inactive)
- GI50 (HOP-92): > 100 µM (inactive)
- GI50 (NCI-H522): > 100 µM (inactive)
- GI50 (BT-549): > 100 µM (inactive)
- GI50 (OVCAR-3): > 100 µM (inactive)
- GI50 (KM12): > 100 µM (inactive)
- GI50 (SF-268): > 100 µM (inactive)
- GI50 (RPMI-8226): > 100 µM (inactive)
- GI50 (HOP-62): > 100 µM (inactive)
- GI50 (HT-29): > 100 µM (inactive)
- GI50 (OVCAR-5): > 100 µM (inactive)
- GI50 (NCI-H226): > 100 µM (inactive)
- GI50 (COLO 205): > 100 µM (inactive)
- GI50 (SW-620): > 100 µM (inactive)
- GI50 (786-0): > 100 µM (inactive)
- GI50 (Malme-3M): > 100 µM (inactive)
- GI50 (HCT-15): > 100 µM
- GI50 (LOX IMVI): > 100 µM (inactive)
- GI50 (MDA-N): > 100 µM (inactive)
- GI50 (HL-60): > 100 µM (inactive)
- GI50 (DU-145): > 100 µM (inactive)
- GI50 (NCI-H23): > 100 µM (inactive)
- GI50 (SK-MEL-28): > 100 µM (inactive)
- GI50 (UACC-62): > 100 µM (inactive)
- GI50 (CAKI-1): > 100 µM (inactive)
- GI50 (Hs-578T): > 100 µM (inactive)
- GI50 (NCI/ADR-RES): > 100 µM (inactive)
- GI50 (SK-MEL-5): > 100 µM (inactive)
- GI50 (UACC-257): > 100 µM (inactive)
- GI50 (CCRF-CEM): > 100 µM (inactive)
- GI50 (SNB-19): > 100 µM (inactive)
- GI50 (ACHN): > 100 µM (inactive)
- GI50 (OVCAR-8): > 100 µM (inactive)
- GI50 (SNB-75): > 100 µM (inactive)
- GI50 (MCF7): > 100 µM (inactive)
- GI50 (A549): > 100 µM (inactive)
- GI50 (U-251): > 100 µM (inactive)
- GI50 (MDA-MB-435): > 100 µM (inactive)
- GI50 (PC-3): > 100 µM (inactive)
- GI50 (HCT-116): > 100 µM (inactive)
- GI50 (M14): > 100 µM (inactive)
- GI50 (MOLT-4): > 100 µM (inactive)
- GI50 (OVCAR-4): > 100 µM (inactive)
